Data taken from patent US9902711B2, “Piperidine compounds having multimodal activity against pain” (LABORATORIOS DEL DR. ESTEVE S.A., priority 2013, dated 2018).

System: human σ1 receptor and human μ-opioid receptor
Experiment: Human σ1 receptor radioligand assay and human μ-opioid receptor radioligand assay (results reported only as combined μ and σ1 dual binding)
Set-up: key to μ and σ1 dual binding: +: Both Ki-μ and Ki-σ1>=500 nM; ++: One Ki<500 nM while the other Ki is >=500 nM; +++: Both Ki-μ and Ki-σ1<500 nM; ++++: Both Ki-μ and Ki-σ1<100 nM
Conditions: Ki at human σ1 receptor (HEK-293 membranes, [3H](+)-pentazocine) and human μ-opioid receptor (CHO-K1 membranes, [3H]-DAMGO), one combined class
Protocol: To investigate binding properties of σ1 receptor ligands to human σ1 receptor, transfected HEK-293 membranes and [^3H](+)-pentazocine (Perkin Elmer, NET-1056), as the radioligand, were used. The assay was carried out with 7 μg of membrane suspension, 5 nM of [^3H](+)-pentazocine in either absence or presence of either buffer or 10 μM Haloperidol for total and non-specific binding, respectively. Binding buffer contained Tris-HCl 50 mM at pH 8. Plates were incubated at 37° C. for 120 minutes. After the incubation period, the reaction mix was then transferred to MultiScreen HTS, FC plates (Millipore), filtered and plates were washed 3 times with ice-cold 10 mM Tris-HCL (pH7.4). Filters were dried and counted at approximately 40% efficiency in a MicroBeta scintillation counter (Perkin-Elmer) using EcoScint liquid scintillation cocktail
To investigate binding properties of μ-opioid receptor ligands to human μ-opioid receptor, transfected CHO-K1 cell membranes and [^3H]-DAMGO (Perkin Elmer, ES-542-C), as the radioligand, were used. The assay was carried out with 20 μg of membrane suspension, 1 nM of [^3H]-DAMGO in either absence or presence of either buffer or 10 μM Naloxone for total and non-specific binding, respectively. Binding buffer contained Tris-HCl 50 mM, MgCl2 5 mM at pH 7.4. Plates were incubated at 27° C. for 60 minutes. After the incubation period, the reaction mix was then transferred to MultiScreen HTS, FC plates (Millipore), filtered and plates were washed 3 times with ice-cold 10 mM Tris-HCL (pH 7.4). Filters were dried and counted at approximately 40% efficiency in a MicroBeta scintillation counter (Perkin-Elmer) using EcoScint liquid scintillation cocktail.

| SMILES | μ and σ1 dual binding | Ki |
| --- | --- | --- |
| CC(=O)Oc1cccc(C2CCN(Cc3cn(Cc4ccccn4)nn3)CC2)c1 [Example 3, 3-(1-((1-(pyridin-2-ylmethyl)-1H-1,2,3-triazol-4-yl)methyl)piperidin-4-yl)phenyl acetate] | ++ |  |
| COc1cccc(C2CCN(Cc3cn(Cc4ccccn4)nn3)CC2)c1 [Example 12, 2-((4-((4-(3-methoxyphenyl)piperidin-1-yl)methyl)-1H-1,2,3-triazol-1-yl)methyl)pyridine] | ++ |  |
| O=C(Nc1ccc(C(=O)O)cc1)Oc1cccc(C2CCN(Cc3cn(Cc4ccccn4)nn3)CC2)c1 [Example 4] |  | < 500 nM |
| NC1(C(=O)Oc2cccc(C3CCN(Cc4cn(Cc5ccccn5)nn4)CC3)c2)CCCCC1 [Example 20, 3-(1-((1-(pyridin-2-ylmethyl)-1H-1,2,3-triazol-4-yl)methyl)piperidin-4-yl)phenyl 1-aminocyclohexanecarboxylate] |  | ≥ 500 nM |
| COCCOc1cccc(C2CCN(Cc3cn(-c4ccccc4)nn3)CC2)c1 [Example 10, 4-(3-(2-methoxyethoxy)phenyl)-1-((1-phenyl-1H-1,2,3-triazol-4-yl)methyl)piperidine] |  | < 500 nM |
| CC(C)[C@H](N)C(=O)Oc1cccc(C2CCN(Cc3cn(Cc4ccccn4)nn3)CC2)c1 [Example 6, (S)-3-(1-((1-(pyridin-2-ylmethyl)-1H-1,2,3-triazol-4-yl)methyl)piperidin-4-yl)phenyl 2-amino-3-methylbutanoate] |  | < 500 nM |
| COc1cccc(C2CCN(Cc3cn(C(CO)c4ccccc4)nn3)CC2)c1 (centres unmarked) [Example 17, 2-(4-((4-(3-methoxyphenyl)piperidin-1-yl)methyl)-1H-1,2,3-triazol-1-yl)-2-phenylethanol] | ++ |  |
| N[C@@H](Cc1ccccc1)C(=O)Oc1cccc(C2CCN(Cc3cn(Cc4ccccn4)nn3)CC2)c1 [Example 19, (S)-3-(1-((1-(pyridin-2-ylmethyl)-1H-1,2,3-triazol-4-yl)methyl)piperidin-4-yl)phenyl 2-amino-3-phenylpropanoate] |  | < 500 nM |
| O=C(Oc1cccc(C2CCN(Cc3cn(Cc4ccccn4)nn3)CC2)c1)[C@@H]1CCCN1 [Example 18, (S)-3-(1-((1-(pyridin-2-ylmethyl)-1H-1,2,3-triazol-4-yl)methyl)piperidin-4-yl)phenyl pyrrolidine-2-carboxylate] |  | < 500 nM |
| O=C(O)CNC(=O)Oc1cccc(C2CCN(Cc3cn(Cc4ccccn4)nn3)CC2)c1 [Example 14] |  | ≥ 500 nM |
| COCCCOc1cccc(C2CCN(Cc3cn(-c4ccccc4)nn3)CC2)c1 [Example 11, 4-(3-(3-methoxypropoxy)phenyl)-1-((1-phenyl-1H-1,2,3-triazol-4-yl)methyl)piperidine] |  | < 500 nM |
| COc1cccc(C2CCN(Cc3cn(-c4ccc(F)cc4)nn3)CC2)c1 [Example 2, 1-((1-(4-fluorophenyl)-1H-1,2,3-triazol-4-yl)methyl)-4-(3-methoxyphenyl)piperidine] | ++ |  |
| CC(C)C(=O)Oc1cccc(C2CCN(Cc3cn(Cc4ccccn4)nn3)CC2)c1 [Example 5, 3-(1-((1-(pyridin-2-ylmethyl)-1H-1,2,3-triazol-4-yl)methyl)piperidin-4-yl)phenyl isobutyrate] |  | < 500 nM |
| CN(C)C(=O)Oc1cccc(C2CCN(Cc3cn(-c4ccccc4)nn3)CC2)c1 [Example 8, 3-(1-((1-phenyl-1H-1,2,3-triazol-4-yl)methyl)piperidin-4-yl)phenyl dimethylcarbamate] |  | < 500 nM |
| COc1cccc(C2CCN(Cc3cn(-c4ccccc4)nn3)CC2)c1 [Example 7, 4-(3-methoxyphenyl)-1-((1-phenyl-1H-1,2,3-triazol-4-yl)methyl)piperidine] |  | < 500 nM |
| COc1cccc(C2CCN(Cc3cn(Cc4ncccc4F)nn3)CC2)c1 [Example 15, 3-fluoro-2-((4-((4-(3-methoxyphenyl)piperidin-1-yl)methyl)-1H-1,2,3-triazol-1-yl)methyl)pyridine] | ++ |  |
| CCNC(=O)Oc1cccc(C2CCN(Cc3cn(-c4ccccc4)nn3)CC2)c1 [Example 1, 3-(1-((1-phenyl-1H-1,2,3-triazol-4-yl)methyl)piperidin-4-yl)phenyl ethylcarbamate] |  | < 500 nM |
| COc1cccc(C2CCN(Cc3cn(Cc4ccc(F)cn4)nn3)CC2)c1 [Example 16, 5-fluoro-2-((4-((4-(3-methoxyphenyl)piperidin-1-yl)methyl)-1H-1,2,3-triazol-1-yl)methyl)pyridine] | ++ |  |
| CC(=O)Oc1cccc(C2CCN(Cc3cn(-c4ccccc4)nn3)CC2)c1 [Example 9, 3-(1-((1-phenyl-1H-1,2,3-triazol-4-yl)methyl)piperidin-4-yl)phenyl acetate] |  | < 100 nM |
| CC(C)[C@H](NC(=O)Oc1cccc(C2CCN(Cc3cn(Cc4ccccn4)nn3)CC2)c1)C(=O)O [Example 13] |  | ≥ 500 nM |
